In US6610890B1, “Aldose reductase inhibitors and pharmaceutical compositions” (O.N.C.E.-(Organizacion Nacional De Cicgos), priority 1998, dated 2003) one finds melting point and IC50 data, which are given here for seven compounds.

The test system of data set [1] is cells from rabbit cornea (ATCC CCL 60). In words: Inhibition of intracellular accumulation of sorbitol in rabbit cornea cells. It counts as cell-based. Particulars: Oryctolagus cuniculus, read-out: INHIBITION, IC50 Sorbitol Accumulation. On the procedure:
For this assay, cells from rabbit cornea (ATCC CCL 60) were used as previously described^23. In summary, 10×10^6 cells were incubated in 2.5 ml of Minimum Essential Medium (JRH Biosciences), 0.5% foetal calf serum and 50 mM glucose for 16 h at 37° C. in presence of 5% CO2. Compounds under study were added in DMSO whose final concentration was 1%. The sorbitol accumulated in the cells was extracted by lysis with 8% perchloric acid and neutralised with 2N KOH^24. Sorbitol quantitation was carried out using a calorimetric test (D-Sorbitol/Xylitol, Boehringer Mannheim).

The target of data set [2] is T1, Human recombinant aldose reductase (Homo sapiens, UniProt P15121).
T1 construct: made in house; host or cells: Sf9 insect cells (Spodoptera frugiperda) infected with recombinant baculovirus AcAR
In words: Inhibition of human recombinant aldose reductase (NADPH disappearance at 340 nm). It is filed as biochemical. The protocol: Human recombinant aldose reductase was obtained and purified as previously described^21 with slight modifications. Briefly, Sf9 insect cells (Spodoplera frugiperda, from Pharmingen) were cultured in Grace's medium (Gibco) at 27° C. Then, cultures were infected with the purified recombinant baculovirus AcAR^22 that was kindly provided by Dr. C. Nishimura (National Children's Medical Research Center, Tokyo, Japan). The enzyme released into the culture medium was purified by affinity chromatography (Matrex Gel Orange A, Amicon). This Aldose Reductase was kept at −20° C. in 50 mM sodium phosphate, pH 7.0, 5 mM dithiotreitol and 50% glycerol.
Recombinant Aldose Reductase activity was determined according to the method previously described^21. The assay was carried out in a 96-well microtiter plate, at 37° C. in 100 mM sodium phosphate buffer, pH 6.2, 400 mM (NH4)2SO4, 0.1 mM NADPH and 5 mU/ml recombinant aldose reductase (1 mU of activity was defined as a change in absorbance of 0.012 units per minute). The reaction was initiated by addition of 10 mM glyceraldehyde and the enzymatic activity measured as the NADPH disappearance at 340 nm in a plate reader (MR-5000, Dynatech). Compounds were dissolved in DMSO (1% final concentration).

The mark [3] stands for this setting: rabbit cornea cells, 50 mM glucose, 16 h at 37° C.
Setting [4] is: recombinant enzyme, 37° C., pH 6.2, 10 mM glyceraldehyde, 0.1 mM NADPH, read-out: INHIBITION, IC50 Aldose Reductase.

By melting point is commonly meant the temperature of the solid-liquid transition. By IC50 is commonly meant the concentration at which inhibition is half-maximal.

Like-named read-outs stand apart in the source and are kept apart here.

In turn, `Oc1c(Br)c(Br)c(-c2c(Br)c(Br)c(O)c(Br)c2Br)c(Br)c1Br` [A-V, 2,2′,3,3′,5,5′,6,6′-Octabromo-4,4′-biphenol] registered a melting point of 282 °C. In addition, the IC50 in data set [1] (setting [3]) was over 12 µM. For the same compound, the IC50 in data set [2] (setting [4]) turned out to be 1 µM.
`Oc1c(F)c(F)c(-c2c(F)c(F)c(O)c(F)c2F)c(F)c1F` [A-VII, 2,2′,3,3′,5,5′,6,6′-Octafluoro-4,4′-biphenol hydrate]: the IC50 in data set [1] (16 h) stood at 0.42 µM; in data set [2] (setting [4]), 0.22 µM.
`Oc1c(Cl)c(Cl)c(-c2c(Cl)c(Cl)c(O)c(Cl)c2Cl)c(Cl)c1Cl` [A-VI, 2,2′,3,3′,5,5′,6,6′-Octachloro-4,4′-biphenol] yielded a melting point of 94 to 96 °C. In addition, the half-inhibitory concentration (IC50) in data set [1] (setting [3]) turned out to be 0.22 µM. In addition, the IC50 in data set [2] (setting [4]) stood at 11 µM.
Regarding `O=C(c1cc(Br)cc(Br)c1O)c1cc(Br)cc(Br)c1O` [A-IV, 3,3′,5,5′-tetrabromo-2,2′-dihydroxybenzophenone], the figures for the IC50 in data set [1] (setting [3]) and in data set [2] (setting [4]) were 5 µM and 4 µM, respectively.
With `Oc1c(Oc2cc(Br)c(Br)c(Br)c2O)cc(Br)c(Br)c1Br` [A-I, 3,3′,4,4′,5,5′-hexabromo-2,2′-dihydroxy-oxydiphenyl], the melting point lay in the range of 188 to 190 °C. Besides, the IC50 in data set [1] (setting [3]) worked out at 1 µM. For the same compound, the IC50 in data set [2] (setting [4]) is 4 µM.
`Oc1c(Br)cc(Oc2cc(Br)c(Br)c(Br)c2O)c(O)c1Br` [A-II, 3,3′,4′,5,5′-pentabromo-2,2′,4-trihydroxy-oxydiphenyl] gave a melting point of 207 to 209 °C. In addition, the IC50 in data set [1] (setting [3]) is 8 µM. Further, the half-inhibitory concentration (IC50) in data set [2] turned out to be 2 µM.
As for `Oc1c(Oc2cc(Cl)c(Cl)c(Cl)c2O)cc(Cl)c(Cl)c1Cl` [A-III, 3,3′,4,4′,5,5′-Hexachloro-2,2′-dihydroxy-oxydiphenyl], the IC50 was determined as 0.24 µM in data set [1] (setting [3]) and 5 µM in data set [2].
